This assay concerns HCV pseudoparticles (genotype 1a HCV E1 and E2 envelope, H77C isolate). As to the kind of experiment: HCV pseudoparticle infection assay (luciferase reporter, Huh7 cells). The assay is classed as cell-based, HCV genotype 1a. The settings on record: Hepatitis C virus, Huh-7, 48 h, read-out: EC50 (1a, nM), genotype 1a HCV pseudoparticles, Huh7 cells, luciferase 2 days after infection. (In general: Reporter assays use an easily measured gene product as a stand-in for the process of interest.)

Where two headings read alike, the source gives them in different places.

Regarding `N=C(N)N1CCCN(C(=O)c2cccc(Nc3nc(NCc4ccc(Cl)cc4)nc(OCc4ccccc4)n3)c2)CC1` [Compound 1018], the EC50 – broadly, the concentration giving half of the maximal effect – (class symbol) lay within 10 to 1000 nM.

`[2H]C([2H])(Oc1nc(Nc2ccc(C(=O)N[C@@H](CCCNC(=N)N)C(=O)NCC(N)=O)cc2)nc(NC2(c3ccc(Cl)cc3)CC2)n1)C(F)(F)F` [Compound 1030]: where the note is “class symbol”, the EC50 is 0.01 to 10 nM.

With `N=C(N)N1CCCN(C(=O)c2ccc(Nc3nc(NC4(c5ccc(Cl)cc5)CC4)nc(OCC(F)(F)F)n3)cc2)CC1` [Compound 1001, 4-(4-(4-(1-(4-chlorophenyl)cyclopropylamino)-6-(2,2,2-trifluoroethoxy)-1,3,5-triazin-2-ylamino)benzoyl)-1,4-diazepane-1-carboximidamide], the EC50 (class symbol) lay in the range of 0.01 to 10 nM.

As for `N#C/N=C(\N1CCCCC1)N1CCN(C(=O)c2ccc(Nc3nc(NC4(c5ccc(Cl)cc5)CC4)nc(OCC(F)(F)F)n3)cc2)CC1` [Compound 1013, N-((4-(4-(4-(1-(4-chlorophenyl)cyclopropylamino)-6-(2,2,2-trifluoroethoxy)-1,3,5-triazin-2-ylamino)benzoyl)piperazin-1-yl)(piperidin-1-yl)methylene)cyanamide], the EC50 (class symbol) lay in the range of 0.01 to 10 nM.

Turning to `N=C(N)NCCCCNC(=O)c1cccc(Nc2nc(NCc3ccc(Cl)cc3)nc(OCc3ccccc3)n2)c1` [Compound 1025], the EC50 reads like this: (class symbol) above 1000 nM; (numeric value) 4480 nM.

Turning to `N=C(N)N1CCCN(C(=O)c2ccc(Nc3nc(NCc4ccc(Cl)cc4)nc(OCC(F)(F)F)n3)cc2)CC1` [Compound 1004, 4-(4-(4-(4-chlorobenzylamino)-6-(2,2,2-trifluoroethoxy)-1,3,5-triazin-2-ylamino)benzoyl)-1,4-diazepane-1-carboximidamide], the EC50 (class symbol) was in the range of 10 to 1000 nM.

Take `N=C(N)N1CCN(C(=O)c2cccc(Nc3nc(NCc4ccc(Cl)cc4)nc(OCc4ccccc4)n3)c2)CC1` [Compound 1027]: the EC50 (class symbol) is 10 to 1000 nM.

As to `N=C(N)NCCC[C@H](NC(=O)c1ccc(Nc2nc(NC3(c4ccc(Cl)cc4)CC3)nc(OCC(F)(F)F)n2)cc1)C(N)=O` [Compound 1016, (S)—N-(1-amino-5-guanidino-1-oxopentan-2-yl)-4-(4-(1-(4-chlorophenyl)cyclopropylamino)-6-(2,2,2-trifluoroethoxy)-1,3,5-triazin-2-ylamino)benzamide], the EC50 runs as follows: (class symbol) 0.01 to 10 nM; (numeric value) 0.352 nM.

On to `N=C(N)NS(=O)(=O)c1ccc(NC(=O)c2ccc(Nc3nc(NCc4ccc(Cl)cc4)nc(OCc4ccccc4)n3)cc2)cc1` [Compound 1022], for which the EC50 was 10 to 1000 nM (class symbol) and 62.5 nM (numeric value).

For `N=C(N)NCCC[C@H](NC(=O)c1ccc(Nc2nc(NCc3ccc(Cl)cc3)nc(OCC(F)(F)F)n2)cc1)C(=O)O` [Compound 1007, (S)-2-(4-(4-(4-chlorobenzylamino)-6-(2,2,2-trifluoroethoxy)-1,3,5-triazin-2-ylamino)benzamido)-5-guanidinopentanoic acid], the EC50 (class symbol) lay in the range of 10 to 1000 nM.

On to `N=C(N)NNC(=O)c1ccc(Nc2nc(NCc3ccc(Cl)cc3)nc(OCc3ccccc3)n2)cc1` [Compound 1020], for which the EC50 was 10 to 1000 nM (class symbol) and 175 nM (numeric value).

With `N=C(N)NCCC[C@H](NC(=O)c1ccc(Nc2nc(NCc3ccc(Cl)cc3)nc(OCc3ccccc3)n2)cc1)C(=O)N[C@@H](CCC(N)=O)C(=O)O` [Compound 1019], the EC50 (class symbol) lay within 10 to 1000 nM.

As to `NC(=O)/N=C(\N1CCC1)N1CCN(C(=O)c2ccc(Nc3nc(NC4(c5ccc(Cl)cc5)CC4)nc(OCC(F)(F)F)n3)cc2)CC1` [Compound 1010, 1-(azetidin-1-yl(4-(4-(4-(1-(4-chlorophenyl)cyclopropylamino)-6-(2,2,2-trifluoroethoxy)-1,3,5-triazin-2-ylamino)benzoyl)piperazin-1-yl)methylene)urea], where the note is “class symbol”, the EC50 lay in the range of 0.01 to 10 nM.

For `[2H]C([2H])(Oc1nc(Nc2ccc(C(=O)N[C@@H](CCCNC(=N)N)C(=O)N[C@@H](CC(N)=O)C(N)=O)cc2)nc(NC2(c3ccc(Cl)cc3)CC2)n1)C(F)(F)F` [Compound 1031], where the note is “class symbol”, the EC50 was 0.01 to 10 nM.

In the case of `[2H]C([2H])(Oc1nc(Nc2ccc(C(=O)N[C@@H](CCCNC(=N)N)C(N)=O)cc2)nc(NC2(c3ccc(Cl)cc3)CC2)n1)C(F)(F)F` [Compound 1028], the EC50 (class symbol) fell in the range of 0.01 to 10 nM.

As to `N=C(N)NS(=O)(=O)c1ccc(NC(=O)c2cccc(Nc3nc(NCc4ccc(Cl)cc4)nc(OCc4ccccc4)n3)c2)cc1` [Compound 1023], the EC50 (class symbol) fell in the range of 10 to 1000 nM.

For the compound `N#C/N=C(\NC1CCCC1)N1CCN(C(=O)c2ccc(Nc3nc(NC4(c5ccc(Cl)cc5)CC4)nc(OCC(F)(F)F)n3)cc2)CC1` [Compound 1009, 4-(4-(4-(1-(4-chlorophenyl)cyclopropylamino)-6-(2,2,2-trifluoroethoxy)-1,3,5-triazin-2-ylamino)benzoyl)-N′-cyano-N-cyclopentylpiperazine-1-carboximidamide], the EC50 runs as follows: (class symbol) 0.01 to 10 nM; (numeric value) 3.57 nM.

`N=C(N)N1CCCN(C(=O)c2ccc(Nc3nc(NCc4ccc(Cl)cc4)nc(OCc4ccccc4)n3)cc2)CC1` [Compound 1017]: the EC50 (class symbol) fell in the range of 10 to 1000 nM.

On to `[2H]C([2H])(Oc1nc(Nc2ccc(C(=O)N[C@H](CCCNC(=N)N)C(=O)N[C@@H](Cc3ccccc3)C(=O)O)cc2)nc(NC2(c3ccc(Cl)cc3)CC2)n1)C(F)(F)F` [Compound 1029], for which, where the note is “class symbol”, the EC50 is 0.01 to 10 nM.

For `N=C(N)NNC(=O)c1cccc(Nc2nc(NCc3ccc(Cl)cc3)nc(OCc3ccccc3)n2)c1` [Compound 1021], the concentration for a half-maximal effect (EC50) (class symbol) was above 1000 nM.

`NC(=O)/N=C(\NC1CCCC1)N1CCN(C(=O)c2ccc(Nc3nc(NC4(c5ccc(Cl)cc5)CC4)nc(OCC(F)(F)F)n3)cc2)CC1` [Compound 1008, N′-carbamoyl-4-(4-(4-(1-(4-chlorophenyl)cyclopropylamino)-6-(2,2,2-trifluoroethoxy)-1,3,5-triazin-2-ylamino)benzoyl)-N-cyclopentylpiperazine-1-carboximidamide]: the half-maximal effective concentration (EC50) (class symbol) was 0.01 to 10 nM.

As to `N=C(N)NCCCCNC(=O)c1ccc(Nc2nc(NCc3ccc(Cl)cc3)nc(OCC(F)(F)F)n2)cc1` [Compound 1005, 4-(4-(4-chlorobenzylamino)-6-(2,2,2-trifluoroethoxy)-1,3,5-triazin-2-ylamino)-N-(4-guanidinobutyl)benzamide], the EC50 is 10 to 1000 nM (class symbol) and 29.5 nM (numeric value).

With `N=C(N)NC[C@H](NC(=O)c1ccc(Nc2nc(NC3(c4ccc(Cl)cc4)CC3)nc(OCC(F)(F)F)n2)cc1)C(=O)O` [Compound 1015, (S)-2-(4-(4-(1-(4-chlorophenyl)cyclopropylamino)-6-(2,2,2-trifluoroethoxy)-1,3,5-triazin-2-ylamino)benzamido)-3-guanidinopropanoic acid], the EC50 (class symbol) lay within 0.01 to 10 nM.

For `N=C(N)N1CCN(C(=O)c2ccc(Nc3nc(NCc4ccc(Cl)cc4)nc(OCc4ccccc4)n3)cc2)CC1` [Compound 1026], for the setting “class symbol”, the EC50 fell in the range of 10 to 1000 nM.

`N=C(N)NCCC[C@H](NC(=O)c1ccc(Nc2nc(NC3(c4ccc(Cl)cc4)CC3)nc(OCC(F)(F)F)n2)cc1)C(=O)O` [Compound 1003, (S)-2-(4-(4-(1-(4-chlorophenyl)cyclopropylamino)-6-(2,2,2-trifluoroethoxy)-1,3,5-triazin-2-ylamino)benzamido)-5-guanidinopentanoic acid]: the concentration giving a half-maximal response (EC50) reads like this: (class symbol) 0.01 to 10 nM; (numeric value) 0.711 nM.

In the case of `NC(=O)/N=C(\N1CCCCC1)N1CCN(C(=O)c2ccc(Nc3nc(NC4(c5ccc(Cl)cc5)CC4)nc(OCC(F)(F)F)n3)cc2)CC1` [Compound 1012, 1-((4-(4-(4-(1-(4-chlorophenyl)cyclopropylamino)-6-(2,2,2-trifluoroethoxy)-1,3,5-triazin-2-ylamino)benzoyl)piperazin-1-yl)(piperidin-1-yl)methylene)urea], the EC50 (class symbol) is 0.01 to 10 nM.

With `N=C(N)NCCC[C@@H](NC(=O)c1ccc(Nc2nc(NC3(c4ccc(Cl)cc4)CC3)nc(OCC(F)(F)F)n2)cc1)C(=O)O` [Compound 1002, (R)-2-(4-(4-(1-(4-chlorophenyl)cyclopropylamino)-6-(2,2,2-trifluoroethoxy)-1,3,5-triazin-2-ylamino)benzamido)-5-guanidinopentanoic acid], for the setting “class symbol”, the EC50 is 0.01 to 10 nM.

Consider `N=C1NCCN1C(=O)c1ccc(Nc2nc(NC3(c4ccc(Cl)cc4)CC3)nc(OCC(F)(F)F)n2)cc1` [Compound 1014, (4-(4-(1-(4-chlorophenyl)cyclopropylamino)-6-(2,2,2-trifluoroethoxy)-1,3,5-triazin-2-ylamino)phenyl)(2-iminoimidazolidin-1-yl)methanone], for which the concentration giving a half-maximal response (EC50) is, setting by setting: (class symbol) 0.01 to 10 nM; (numeric value) 3.01 nM.

As to `N=C(N)NCCC[C@@H](NC(=O)c1ccc(Nc2nc(NCc3ccc(Cl)cc3)nc(OCC(F)(F)F)n2)cc1)C(=O)O` [Compound 1006, (R)-2-(4-(4-(4-chlorobenzylamino)-6-(2,2,2-trifluoroethoxy)-1,3,5-triazin-2-ylamino)benzamido)-5-guanidinopentanoic acid], the EC50 (class symbol) was in the range of 10 to 1000 nM.

As for `N=C(N)NCCCCNC(=O)c1ccc(Nc2nc(NCc3ccc(Cl)cc3)nc(OCc3ccccc3)n2)cc1` [Compound 1024], the EC50 (class symbol) was 10 to 1000 nM.

As for `N#C/N=C(\N1CCC1)N1CCN(C(=O)c2ccc(Nc3nc(NC4(c5ccc(Cl)cc5)CC4)nc(OCC(F)(F)F)n3)cc2)CC1` [Compound 1011, N-(azetidin-1-yl(4-(4-(4-(1-(4-chlorophenyl)cyclopropylamino)-6-(2,2,2-trifluoroethoxy)-1,3,5-triazin-2-ylamino)benzoyl)piperazin-1-yl)methylene)cyanamide], under “class symbol”, the EC50 lay within 0.01 to 10 nM.

The record behind these values is patent US9655902B2, “Guanidine derivatives for the treatment of hepatitis C” (priority 2013, dated 2017).
